Data as given in patent publication US20050113450A1, “Antibacterial agents” (priority 2002, published 2005).
In brackets after ≈: the same amount, converted by molar mass.

Test system: SA 9218
Experiment: MIC by standard agar dilution method
Assay type: cell-based
Settings: Mueller Hinton agar, 10^4 to 10^5 cells per spot, incubated overnight at 35° C., lowest concentration that inhibits visible growth
Procedure, shortened: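 Agar dilution: two-fold compound dilutions mixed into molten Mueller Hinton agar, spots of ~10^4–10^5 cells from 0.5 McFarland suspension diluted 1:20 in TSB. Incubated overnight at 35 °C; MIC is lowest concentration inhibiting visible growth.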

| SA 9218 MIC [µg/mL] | MIC [µg/mL] | SMILES |
| --- | --- | --- |
|  | 0.125 (≈ 0.27 µM) | N#Cc1ccc(NC(=O)c2cccc(S(=O)(=O)n3ccc4cc(F)ccc43)c2)c(C(=O)O)c1 [PHA-568461] |
|  | > 128 | N#Cc1ccc(NC(=O)c2cccc(S(=O)(=O)N3CCc4ccccc43)c2)c(C(=O)O)c1 [PHA-571161] |
|  | 32 (≈ 83 µM) | N#Cc1ccc(NC(=O)c2cccc(S(=O)(=O)N3CCC3)c2)c(C(=O)O)c1 [PHA-571167] |
|  | 32 (≈ 69 µM) | CN(CCc1ccccc1)S(=O)(=O)c1ccc(C(=O)Nc2ccc(C#N)cc2C(=O)O)cc1 [PHA-571169] |
|  | 32 (≈ 60.1 µM) | CC(=O)c1ccc(N2CCN(S(=O)(=O)c3cccc(C(=O)Nc4ccc(C#N)cc4C(=O)O)c3)CC2)cc1 [PHA-571172] |
|  | 64 (≈ 150 µM) | N#Cc1ccc(NC(=O)c2ccc(S(=O)(=O)N3CCCCCC3)cc2)c(C(=O)O)c1 [PHA-571174] |
|  | 64 (≈ 144 µM) | CC1CN(S(=O)(=O)c2ccc(C(=O)Nc3ccc(C#N)cc3C(=O)O)cc2)CC(C)O1 (stereo not shown) [PHA-571182] |
| 32 |  | CC(C(O)c1ccccc1)N(C)S(=O)(=O)c1ccc(C(=O)Nc2ccc(C#N)cc2C(=O)O)cc1 (stereo not shown) [PHA-571183] |
|  | 8 (≈ 15.5 µM) | N#Cc1ccc(NC(=O)c2ccc(S(=O)(=O)N3CCC(C#N)(c4ccccc4)CC3)cc2)c(C(=O)O)c1 [PHA-571188] |
|  | 64 (≈ 145 µM) | CCC1CCCCN1S(=O)(=O)c1ccc(C(=O)Nc2ccc(C#N)cc2C(=O)O)cc1 (stereo not shown) [PHA-571189] |
|  | > 128 | COc1cc2c(cc1OC)CN(S(=O)(=O)c1ccc(C(=O)Nc3ccc(C#N)cc3C(=O)O)cc1)CC2 [PHA-571198] |
|  | 64 (≈ 120 µM) | N#Cc1ccc(NC(=O)c2ccc(S(=O)(=O)N3CCN(c4ccc([N+](=O)[O-])cc4)CC3)cc2)c(C(=O)O)c1 [PHA-571199] |
|  | 32 (≈ 72.6 µM) | CCCCN(CC#N)S(=O)(=O)c1ccc(C(=O)Nc2ccc(C#N)cc2C(=O)O)cc1 [PHA-571203] |
|  | 32 (≈ 67 µM) | CC(C)N(Cc1ccccc1)S(=O)(=O)c1ccc(C(=O)Nc2ccc(C#N)cc2C(=O)O)cc1 [PHA-571205] |
|  | 32 (≈ 69.3 µM) | N#Cc1ccc(NC(=O)c2ccc(S(=O)(=O)Nc3ccc4c(c3)CCC4)cc2)c(C(=O)O)c1 [PHA-571207] |
|  | 16 (≈ 37.3 µM) | CCCCN(CC)S(=O)(=O)c1ccc(C(=O)Nc2ccc(C#N)cc2C(=O)O)cc1 [PHA-571214] |
| 32 |  | CC(C(O)c1ccccc1)N(C)S(=O)(=O)c1ccc(C(=O)Nc2ccc(C#N)cc2C(=O)O)cc1 (stereo not shown) [PHA-571228] |

| SA 9218 MIC [µg/mL] | MIC [µg/mL] | SMILES |
| --- | --- | --- |
|  | 16 (≈ 31.5 µM) | N#Cc1ccc(NC(=O)c2cccc(S(=O)(=O)N3CCN(c4ccc(F)cc4)CC3)c2)c(C(=O)O)c1 [PHA-571230] |
|  | > 128 | N#Cc1ccc(NC(=O)c2ccc(S(=O)(=O)N3CCC(O)CC3)cc2)c(C(=O)O)c1 [PHA-571231] |
|  | > 128 | CN(CCC#N)S(=O)(=O)c1ccc(C(=O)Nc2ccc(C#N)cc2C(=O)O)cc1 [PHA-571232] |
|  | 8 (≈ 18.1 µM) | CC1CC(C)CN(S(=O)(=O)c2ccc(C(=O)Nc3ccc(C#N)cc3C(=O)O)cc2)C1 (stereo not shown) [PHA-571234] |
|  | 128 (≈ 332 µM) | N#Cc1ccc(NC(=O)c2ccc(S(=O)(=O)N3CCC3)cc2)c(C(=O)O)c1 [PHA-571239] |
|  | 16 (≈ 37.4 µM) | CC1CCN(S(=O)(=O)c2ccc(C(=O)Nc3ccc(C#N)cc3C(=O)O)cc2)CC1 [PHA-571240] |
|  | 16 (≈ 37.4 µM) | CC1CCCN(S(=O)(=O)c2ccc(C(=O)Nc3ccc(C#N)cc3C(=O)O)cc2)C1 (stereo not shown) [PHA-571241] |
|  | 32 (≈ 64.8 µM) | CC(C(O)c1ccccc1)N(C)S(=O)(=O)c1ccc(C(=O)Nc2ccc(C#N)cc2C(=O)O)cc1 (stereo not shown) [PHA-571242] |
|  | 32 (≈ 65.5 µM) | N#CCCN(Cc1ccccc1)S(=O)(=O)c1ccc(C(=O)Nc2ccc(C#N)cc2C(=O)O)cc1 [PHA-571246] |
|  | 16 (≈ 34.2 µM) | N#Cc1ccc(NC(=O)c2ccc(S(=O)(=O)N3CCCC4CCCCC43)cc2)c(C(=O)O)c1 (stereo not shown) [PHA-571249] |
|  | 16 (≈ 35.3 µM) | C=CCN(C1CCCC1)S(=O)(=O)c1ccc(C(=O)Nc2ccc(C#N)cc2C(=O)O)cc1 [PHA-571253] |
|  | > 128 | N#Cc1ccc(NC(=O)c2ccc(S(=O)(=O)N3CCOCC3)cc2)c(C(=O)O)c1 [PHA-571255] |
|  | 64 (≈ 144 µM) | COCC1CCCN1S(=O)(=O)c1ccc(C(=O)Nc2ccc(C#N)cc2C(=O)O)cc1 (stereo not shown) [PHA-571257] |
|  | 32 (≈ 72.5 µM) | CN(C1CCCCC1)S(=O)(=O)c1ccc(C(=O)Nc2ccc(C#N)cc2C(=O)O)cc1 [PHA-571264] |
|  | 16 (≈ 34.7 µM) | N#Cc1ccc(NC(=O)c2ccc(S(=O)(=O)N3CCc4ccccc4C3)cc2)c(C(=O)O)c1 [PHA-571265] |
|  | 16 (≈ 34.7 µM) | N#Cc1ccc(NC(=O)c2cccc(S(=O)(=O)N3CCc4ccccc4C3)c2)c(C(=O)O)c1 [PHA-571269] |

Continued, molecule first:

| SMILES | SA 9218 MIC [µg/mL] | MIC [µg/mL] |
| --- | --- | --- |
| N#Cc1ccc(NC(=O)c2cccc(S(=O)(=O)N3CCOCC3)c2)c(C(=O)O)c1 [PHA-568420] | 0.5 |  |
| COc1cccc2ccn(S(=O)(=O)c3cccc(C(=O)Nc4ccc(C#N)cc4C(=O)O)c3)c12 [PHA-568422] |  | 0.125 (≈ 0.263 µM) |
| COc1ccc2ccn(S(=O)(=O)c3cccc(C(=O)Nc4ccc(C#N)cc4C(=O)O)c3)c2c1 [PHA-568424] |  | 1 (≈ 2.1 µM) |
| N#Cc1ccc(NC(=O)c2cc(CCO)cc(S(=O)(=O)N3CCc4ccccc43)c2)c(C(=O)O)c1 [PHA-568425] |  | 8 (≈ 16.3 µM) |
| COc1ncc(-c2ccc(NC(=O)c3cccc(S(=O)(=O)N4CCc5cc(Cl)ccc54)c3)c(C(=O)O)c2)c(OC)n1 [PHA-568906] |  | 8 (≈ 13.4 µM) |
| N#Cc1ccc(NC(=O)c2ccc(C#Cc3ccccc3)cc2)c(C(=O)O)c1 [PHA-568907] |  | 8 (≈ 21.8 µM) |
| Cl.N#Cc1ccc(NC(=O)c2cccc(SCc3ccncc3)c2)c(C(=O)O)c1 [PHA-569044A] |  | 0.5 |
| N#Cc1ccc(NC(=O)c2cccc(SCc3ccncc3)c2)c(C(=O)O)c1 [PHA-569044] |  | 0.25 (≈ 0.642 µM) |
| CC1CCCN1S(=O)(=O)c1cccc(C(=O)Nc2ccc(C#N)cc2C(=O)O)c1 (stereo not shown) [PHA-569064] |  | 1 (≈ 2.42 µM) |
| CC1CCC(C)N1S(=O)(=O)c1cccc(C(=O)Nc2ccc(C#N)cc2C(=O)O)c1 (stereo not shown) [PHA-569077] |  | 1 (≈ 2.34 µM) |
| N#Cc1ccc(/C=C/c2cccc(S(=O)(=O)N3CCc4cc(Cl)ccc43)c2)c(C(=O)O)c1 [PHA-569887] |  | 0.25 (≈ 0.538 µM) |
| N#Cc1ccc(NC(=O)c2cccc(OCc3ccccc3)c2)c(C(=O)O)c1 [PHA-569974] |  | 1 (≈ 2.69 µM) |
| Cc1noc(C)c1-c1ccc(NC(=O)c2cccc(S(=O)(=O)N3CCc4cc(Cl)ccc43)c2)c(C(=O)O)c1 [PHA-569977] |  | 16 (≈ 29 µM) |
| N#Cc1ccc(NC(=O)c2cccc(C(=O)C3CCCC3)c2)c(C(=O)O)c1 [PHA-570042] |  | 2 (≈ 5.52 µM) |
| O=C(Nc1ccc(Cl)cc1C(=O)O)c1cc(Br)cc(S(=O)(=O)N2CCc3ccccc32)c1 [PHA-570949] |  | 1 (≈ 1.87 µM) |
| COc1cccc(C(=O)Nc2ccc(C#N)cc2C(=O)O)c1 [PHA-571151] |  | 8 (≈ 27 µM) |
| COc1ccc(Br)c(C(=O)Nc2ccc(C#N)cc2C(=O)O)c1 [PHA-571153] |  | 64 (≈ 171 µM) |
| N#Cc1ccc(NC(=O)c2cccc(Cl)c2)c(C(=O)O)c1 [PHA-571155] |  | 32 (≈ 106 µM) |
| CN(C)c1ccc(C(=O)Nc2ccc(C#N)cc2C(=O)O)cc1 [PHA-571157] |  | 32 (≈ 103 µM) |
| CC(C)CN(CC(C)C)S(=O)(=O)c1cccc(C(=O)Nc2ccc(C#N)cc2C(=O)O)c1 [PHA-571164] |  | 8 (≈ 17.5 µM) |
| N#Cc1ccc(NC(=O)c2cccc(S(=O)(=O)N3CCN(c4ncccn4)CC3)c2)c(C(=O)O)c1 [PHA-571170] |  | 64 (≈ 130 µM) |
| CCN(CC)C(=O)C1CCCN(S(=O)(=O)c2cccc(C(=O)Nc3ccc(C#N)cc3C(=O)O)c2)C1 (stereo not shown) [PHA-571176] |  | 64 (≈ 125 µM) |

| SMILES | SA 9218 MIC [µg/mL] | MIC [µg/mL] |
| --- | --- | --- |
| CN(C1CCCCC1)S(=O)(=O)c1cccc(C(=O)Nc2ccc(C#N)cc2C(=O)O)c1 [PHA-571186] |  | 128 (≈ 290 µM) |
| COc1cc2c(cc1OC)CN(S(=O)(=O)c1cccc(C(=O)Nc3ccc(C#N)cc3C(=O)O)c1)CC2 [PHA-571194] |  | 4 (≈ 7.67 µM) |
| CN(CCC(O)c1ccccc1)S(=O)(=O)c1cccc(C(=O)Nc2ccc(C#N)cc2C(=O)O)c1 (stereo not shown) [PHA-571196] |  | 64 (≈ 130 µM) |
| CCCCN(CC)S(=O)(=O)c1cccc(C(=O)Nc2ccc(C#N)cc2C(=O)O)c1 [PHA-571197] |  | 16 (≈ 37.3 µM) |
| CCN(CC)C(=O)C1CCCN(S(=O)(=O)c2ccc(C(=O)Nc3ccc(C#N)cc3C(=O)O)cc2)C1 (stereo not shown) [PHA-571202] |  | 128 (≈ 250 µM) |
| N#Cc1ccc(NC(=O)c2cccc(S(=O)(=O)N3CCN(c4ccccc4)CC3)c2)c(C(=O)O)c1 [PHA-571208] |  | 64 (≈ 130 µM) |
| CN(CCc1ccccc1)S(=O)(=O)c1cccc(C(=O)Nc2ccc(C#N)cc2C(=O)O)c1 [PHA-571215] |  | 8 (≈ 17.3 µM) |
| CC(C)N(Cc1ccccc1)S(=O)(=O)c1cccc(C(=O)Nc2ccc(C#N)cc2C(=O)O)c1 [PHA-571216] |  | 32 (≈ 67 µM) |
| N#Cc1ccc(NC(=O)c2cccc(S(=O)(=O)N3CCC(O)CC3)c2)c(C(=O)O)c1 [PHA-571219] |  | 32 (≈ 74.5 µM) |
| N#Cc1ccc(NC(=O)c2cccc(S(=O)(=O)N3CCCCCC3)c2)c(C(=O)O)c1 [PHA-571224] |  | 8 (≈ 18.7 µM) |
| CC(C(O)c1ccccc1)N(C)S(=O)(=O)c1cccc(C(=O)Nc2ccc(C#N)cc2C(=O)O)c1 (stereo not shown) [PHA-571226] |  | 64 (≈ 130 µM) |
| N#Cc1ccc(NC(=O)c2cccc(S(=O)(=O)N3CCCC4CCCCC43)c2)c(C(=O)O)c1 (stereo not shown) [PHA-571235] |  | 8 (≈ 17.1 µM) |
| CCCCN(CC#N)S(=O)(=O)c1cccc(C(=O)Nc2ccc(C#N)cc2C(=O)O)c1 [PHA-571237] |  | 16 (≈ 36.3 µM) |
| N#CCCN(Cc1ccccc1)S(=O)(=O)c1cccc(C(=O)Nc2ccc(C#N)cc2C(=O)O)c1 [PHA-571238] |  | 128 (≈ 262 µM) |
| CC1CC(C)CN(S(=O)(=O)c2cccc(C(=O)Nc3ccc(C#N)cc3C(=O)O)c2)C1 (stereo not shown) [PHA-571243] |  | 4 (≈ 9.06 µM) |
| CC(C(O)c1ccccc1)N(C)S(=O)(=O)c1cccc(C(=O)Nc2ccc(C#N)cc2C(=O)O)c1 (stereo not shown) [PHA-571260] | 32 |  |
| N#Cc1ccc(NC(=O)c2cccc(S(=O)(=O)N3CCC(C#N)(c4ccccc4)CC3)c2)c(C(=O)O)c1 [PHA-571262] |  | 32 (≈ 62.2 µM) |
| CCC1CCCCN1S(=O)(=O)c1cccc(C(=O)Nc2ccc(C#N)cc2C(=O)O)c1 (stereo not shown) [PHA-571263] |  | 16 (≈ 36.2 µM) |
| N#Cc1ccc(NC(=O)c2cccc(S(=O)(=O)N3CCN(c4cccc(C(F)(F)F)c4)CC3)c2)c(C(=O)O)c1 [PHA-571267] |  | 32 (≈ 57.3 µM) |
| CC1CCCN(S(=O)(=O)c2cccc(C(=O)Nc3ccc(C#N)cc3C(=O)O)c2)C1 (stereo not shown) [PHA-571270] |  | 8 (≈ 18.7 µM) |
| CN(CCC#N)S(=O)(=O)c1cccc(C(=O)Nc2ccc(C#N)cc2C(=O)O)c1 [PHA-571271] |  | 64 (≈ 155 µM) |
